Experimental data as given in patent US20050214738A1, “Conditional allele system” (priority 2003, published 2005).

What was measured:
KLW = target: T1, KLW (Homo sapiens, UniProt P42345+P62942, T2098L); experiment: SeAP transcriptional switch assay, FRB mutant KLW; type: cell-based
T1 construct: The minimal FRB domain comprises amino acids 2025-2114 of human mTor; expressed in transfected cells; host or cells: COS1 cells
Protocol: (§1) Drug efficacy was determined in a three-plasmid transcriptional switch reporter assay. ˜106 COS1 cells were coelectroporated with 2 μg of the DNA binding construct pBJ5-Gal4-FKBP(3), 2 μg pBJ5-VP16 (or the relevant mutant FRB) and 2 μg of the Gal4-SeAP reporter. Electroporation details are available upon request. Cells were immediately aliquoted to 2 or 3×96 well plates with flat bottoms. After 24 hours incubation media was supplemented with a rapalog in triplicate and in serial two fold dilutions. Following 24 hours further incubation, cells with media were wrapped carefully in plastic wrap and heated to 65° C. for two hours to inactivate endogenous phosphatases. 50 μL of media was transferred to a black 96 well plate (Costar 3915) and supplemented with 1 mM methylumbelliferrylphosphate (Sigma, St. Louis, Mo.) in 1M diethanolamine (pH 10.0 with carbonate). After 16 hours incubation at 37° C. SeAP activity was measured by fluorescence with a Spectamax M2 fluorometer (Molecular Devices, Sunnyvale, Calif.) with transmission set at 355 nm and emmission set at 460 nm. Data was analysed with Softmax Pro (Molecular Devices), Microsoft Excel and Prism 3 (GraphPad Software).

KLF = target: T2, KLF (Homo sapiens, UniProt P42345+P62942, T2098L/W2101F); experiment: SeAP transcriptional switch assay, FRB mutant KLF; type: cell-based; settings: double mutant
T2 construct: The minimal FRB domain comprises amino acids 2025-2114 of human mTor; expressed in transfected cells; host or cells: COS1 cells
T2 sequence (P42345 2025-2114 T2098L/W2101F): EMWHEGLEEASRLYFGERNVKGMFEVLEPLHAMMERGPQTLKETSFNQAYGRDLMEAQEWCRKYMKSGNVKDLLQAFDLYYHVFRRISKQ
T2 sequence (P62942 whole entry, the tested form may be a part): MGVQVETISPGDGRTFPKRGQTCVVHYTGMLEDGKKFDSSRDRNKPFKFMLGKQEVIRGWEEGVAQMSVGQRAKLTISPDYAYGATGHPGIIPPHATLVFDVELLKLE
Protocol: as §1

embryos = experiment: Overt effects on mother and embryos after IP injection of pregnant mice; type: in vivo, mouse; settings: 200 mg/kg/day, 3 IP injections every 12 hours, E10.0 to E11.5
Protocol: GSK-3β^+/FRB* mice were intercrossed and the date of vaginal plug observation was set as E0.5. At E9.5, the stage of embryonic development was confirmed by ultrasonography (Chang, C. P. et al. “Sonographic Staging of the Developmental Status of Mouse Embryos in Utero.” (2003) Published in Genesis 36, 7-11) and mice were weighed. Drug administration commenced at E10.0. […] 100 μL was immediately injected intraperitoneally (IP) to pregnant females with injections repeated twice more at 12 hour intervals to E11.5 when mice were sacrificed, and embryos and organs were dissected and frozen in […]. Tissues anterior to the embryonic forelimbs of individual embryos were used for preparation of protein extracts with the remainder used to determine the concentration of drug and for genotyping.

FRB*Pax6 = target: T3, FRB*Pax6 (UniProt P26883+P42345, K2095P/T2098L/W2101F); experiment: Stabilization of FRB*Pax6 in cortical neural cultures (Western blot); type: cell-based, mouse
T3 construct: The minimal FRB domain comprises amino acids 2025-2114 of human mTor; from tissue; host or cells: e13.5 cortical neural cultures (A14) and cultured whole embryos (A15) from Pax6^FRB* knock-in mice; fusion expressed from the targeted endogenous locus
T3 sequence (P42345 2025-2114 K2095P/T2098L/W2101F): as the sequence (P42345 2025-2114 T2098L/W2101F) above, with K71P counted along it
T3 sequence (P26883 2-108): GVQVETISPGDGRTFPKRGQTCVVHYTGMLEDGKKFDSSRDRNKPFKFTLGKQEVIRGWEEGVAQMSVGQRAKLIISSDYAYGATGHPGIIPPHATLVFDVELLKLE
Description: e13.5 embryos were harvested from a Pax6^FRB*/+ intercross and cortical hemispheres isolated from individuals identified by eye and craniofacial morphology and later confirmed by genotype specific PCR. Pia were removed and neocortex dissected from […] in Hank's balanced salt solution (HBSS). Tissue was minced roughly and placed in centrifuge tubes containing HBSS+20% foetal calf serum. Tissue pieces were allowed to settle and the media was replaced first with HBSS+serum then HBSS alone. The tissue was incubated with 0.1% trypsin+2 mM EDTA 10 minutes at 37° C. then the reaction stopped with HBSS+serum. Cells were triturated to a suspension and plated on 24 well plates coated with matrigel in DMEM (high glucose) supplemented with FCS (5%), N2 (GIBCO) and antibiotics.
Extracts were prepared in RIPA buffer, protein quantified by Bradford Assay (Biorad) and 10 μg of total protein resolved by SDS-PAGE, transferred to PVDF (Millipore) filters and Pax6 or HSP90 identified with specific antibodies (1:1000, Covance and 1:2500 Transduction Laboratories, respectively) incubated 1 hour in TBS+10% nonfat milk. Secondary conjugated to horse radish peroxidase were purchased from Jackson immunochemicals and blots were developed by chemiluminescence (Amersham).

GSK-3βFRB* = GSK-3βFRB* (UniProt P26883+P42345, K2095P/T2098L/W2101F); experiment: Stabilization of GSK-3βFRB* in embryos of injected pregnant mice; type: in vivo, mouse; design: The minimal FRB domain comprises amino acids 2025-2114 of human mTor; endogenous in cells; host or cells: MEFs from GSK-3β^FRB* knock-in mice (fusion expressed from the targeted endogenous locus); settings: 200 mg/kg/day IP to mother, embryos harvested at E11.5
Sequence of GSK-3βFRB* (P42345 2025-2114 K2095P/T2098L/W2101F): as the sequence (P42345 2025-2114 T2098L/W2101F) above, with K71P counted along it
Sequence of GSK-3βFRB* (P26883 2-108): as the sequence (P26883 2-108) above
Protocol: GSK-3β^+/FRB* mice were intercrossed and the date of vaginal plug observation was set as E0.5. At E9.5, the stage of embryonic development was confirmed by ultrasonography (Chang, C. P. et al. “Sonographic Staging of the Developmental Status of Mouse Embryos in Utero.” (2003) Published in Genesis 36, 7-11) and mice were weighed. Drug administration commenced at E10.0. C20-MaRap was dissolved as a stock in N,N-dimethylacetamide (DMA) and was diluted into a delivery vehicle containing 10% Polyethylene glycol 400, 17% Polyoxyethylene sorbitan monooleate and 10% DMA to a final concentration of […]. 100 μL was immediately injected intraperitoneally (IP) to pregnant females with injections repeated twice more at 12 hour intervals to E11.5 when mice were sacrificed, and embryos and organs were dissected and frozen in […]. Tissues anterior to the embryonic forelimbs of individual embryos were used for preparation of protein extracts with the remainder used to determine the concentration of drug and for genotyping.

T1 sequence (P42345 2025-2114 T2098L): as the sequence (P42345 2025-2114 T2098L/W2101F) above, with F77W counted along it
T1 sequence (P62942 whole entry, the tested form may be a part): as the sequence (P62942 whole entry, the tested form may be a part) above

Substance: C20-(R or S)-methallylrapamycin [C20-MaRap]
- improvement of affinity of KLW over wild-type (KLW; KLW versus wild-type FRB): about 5 fold
- EC50 (KLW; single mutation Thr2098 to Leu, read-out: affinity, KLW): 22 nM
- EC50 (KLF): 7.8 nM
- overt effect on mother and embryos (embryos): Neither the mother nor the embryos were overtly affected
- FRB*Pax6 protein level (FRB*Pax6; Pax6FRB*/FRB* cortical neural cultures, increasing quantities, 36 hours): dose-dependent increase in FRB*Pax6 protein
- effect on wild-type Pax6 expression (FRB*Pax6; cortical neural cultures): no effect
- kinetics of FRB*Pax6 turnover (FRB*Pax6; data not shown): markedly slowed
- GSK-3βFRB* protein levels in embryos (GSK-3βFRB*): partially restored
